Laboratory results taken from US20100160443A1, “COMPOUNDS USEFUL FOR TREATING NEUROLOGICAL DISORDERS” (Yissum Research Development Company of The Hebrew …, priority 2003, published 2010).
“Also recorded” adds a separate entry of the source.

Assays:
[1] = test system: tactile allodynia in rats with SNL neuropathy; experiment: Tactile allodynia (von Frey filaments) in the spinal nerve ligation (SNL) model of neuropathic pain; type: in vivo, rat
Method: The effect on neuropathic pain (tactile allodynia) was measured 5-6 days following operation as disclosed above. Rats responding to mechanical stimuli of 10 g or less (in the operated leg) were eligible for the study and were included in the drug administration regime.
Briefly, under ketamine-xylazine anesthesia the rat was placed in a prone position and the left paraspinal muscles were separated from spinous processes at the L4-S2 level. Part of the L6 transverse process was removed and the L4-L6 spinal nerves were identified. The L5-L6 spinal nerves were isolated and tightly ligated and cut, distal to the dorsal root ganglion and proximal to the formation of the sciatic nerve. Following complete homeostasis the wound was sutured.
A volume of 4 ml/kg (volume of injected suspension/rat body weight) was then injected to the rats. […] The three drugs and the control vehicle were administered i.p. (intraperitoneally) to rats at postoperative days 7, 14 and 21 in a double blind randomized crossover manner.
The rat was placed on a metal mesh floor covered with a transparent plastic dome, a period of acclimatization was allowed prior to testing. VFFs were applied from underneath the mesh floor to the plantar surface of the foot. Each trial consisted of repeated applications of each of the VFFs in an ascending order for 5 times, each for a period of 1 second. testing between two consecutive ascending VFFs was separated by period of 2 min. If the rat withdrew the foot at least 3 times out of 5 at a specific VFF no further ascending filaments were tested and this filament was considered as a withdrawal threshold (response). Mechanical stimulus trials with the series of ascending VFF were repeated 2 times for a given time point. The repeated measurements were averaged and taken as the paw withdrawal threshold on a given time point.
The absolute threshold and the difference in the allodynic threshold (time point minus baseline) values were tested using Mann-Whitney Test and Kruskal-Wallis Nonparametric test (two tailed) followed by Dunn's Multiple comparison test. The ED50 (median effective dose) was calculated by using Probit analysis method.
Briefly, under ketamine-xylazine anesthesia (85 mg kg^−1, i.p and 13 mg kg^−1, i.p, respectively) rats were placed in a prone position and paraspinal muscles on the left were separated from the L4-S2 spinous processes. Part of the L6 transverse process was removed and the underlying L4-L6 spinal nerves were identified. The L5 and L6 spinal nerves were isolated, tightly ligated with 5-0 silk, and cut just distal to the ligature. The ligature was approximately 8 mm distal to the corresponding dorsal root ganglion (DRG). Following complete homeostasis the wound was sutured in layers, the skin closed with Michel clips, topical bacteriostatic power was applied, and 20000 units of duplo-penicillin was injected intramuscularly (i.m.).
We used a set of 9 nylon von Frey monofilaments (VFF, Semmes-Weinstein monofilaments, Stoelting, Wood Dale, Ill., USA) to quantify foot withdrawal in response to normally innocuous tactile stimuli. […] Forces were calibrated by lowering filaments onto the pan of an electronic balance until they just bent.
Rats were placed on a raised wire mesh screen (gaps 4 mm×4 mm), which allowed access to the plantar surface of the hindpaw from below. They were covered with a transparent plastic dome, 13 cm high, which prevented rearing on the hindlimbs. A period of 20 min was allowed for acclimation prior to sensory testing. The mid-plantar hindpaw skin just caudal to the footpads, half way between medial and lateral edges of the foot, was subjected to a series of 5 brief probes, spaced at about 1 s. Each such stimulus was sufficient to just bend the filament. Testing began with the filament with the weakest initial bending force (0.6 g). […] Response threshold was the bending force of the first monofilament in the series that evoked a criterion ≧⅗ responses.

[2] = test system: motor performance (rotarod test); experiment: Neurological motor dysfunction tests (accelerating rotarod, observation for sedation); conditions: for motor performance, time to fall off the rotarod: n=6, vehicle 118.0±2.3; for effect on motor performance (rotarod test) compared to vehicle: highest doses tested (VPA 400, DID 90 mg kg^−1 i.p.), p>0.05, n=6; for neurological motor dysfunction or sedation at the highest drug dose tested: normal rats
Method: On the day of testing, a baseline response was obtained, and rats were subsequently administered drug or vehicle. […] In addition, we examined our rats individually for signs of motor dysfunction and sedation as assessed by posture and gate during spontaneous and induced movement, grooming, chewing, stepping reflex, and startle reflex evoked by tapping on the cage.
For each drug and dose, attenuation of tactile allodynia (threshold measured in g) was measured. […] These areas under the response curve values for every group of rats per dose were evaluated against vehicle treatment using the nonparametric Wilcoxon one tailed test (dose of drug tested vs. vehicle on the same treatment). […] A p value <0.05 was considered statistically significant.

[3] = test system: maximal electroshock (MES) test; conditions: rat, in vivo, po; cited from earlier work
[4] = test system: neuropathic pain due to spinal cord injury; conditions: double-blind placebo-controlled trial; cited from earlier work

SMILES | antiallodynic effect / effectiveness for treating neuropathic pain ([1]; rat, in vivo) | ED50 (tactile allodynia) ([1]; rat, in vivo, ip) [mg/kg] | SNL-ED50 ([1]; rat, in vivo, ip) [mg/kg] | dose dependence of the antiallodynic effect ([1]; rat, in vivo, ip) | lowest effective dose (significant increase of the allodynic threshold vs vehicle) ([1]; rat, in vivo, ip) [mg/kg] | rats with no response to 15 g or above VFF at the highest dose tested ([1]; rat, in vivo, ip) [%] | time of maximal effect after administration ([1]; rat, in vivo, ip) [min] | motor performance, time to fall off the rotarod ([2]; DID 90 mg kg^−1 i.p., 120 min after dosing) [s] | effect on motor performance (rotarod test) compared to vehicle [2] | neurological motor dysfunction or sedation at the highest drug dose tested [2] | MES-ED50 [3] [mg/kg] | rats relieved from tactile allodynia at the highest dose tested ([1]; VPA 400 mg kg^−1 i.p.) [%] | dose dependence of the antiallodynic effect ([1]; i.p., rat) | lowest effective dose (significant increase of the allodynic threshold vs vehicle) ([1]; i.p., rat) [mg/kg] | time of maximal effect after administration ([1]; i.p., rat) [min] | ED50 (tactile allodynia) ([1]; i.p., rat, 60 min after dosing) [mg/kg] | SNL-ED50 ([1]; i.p., rat, 60 min post injection, DID at 120 min) [mg/kg] | ED50 ([1]; ip, 1 h, i.p., rat, 60 min after administration, protected = threshold of at least 15 g, read-out: ED50 (tactile allodynia threshold)) [mg/kg] | motor performance, time to fall off the rotarod ([2]; VPA 400 mg kg^−1 i.p., 60 min after dosing) [s] | pain relief versus placebo [4]
CC(C)C(C(N)=O)C(C)C [DID, diisopropylacetamide] | effective for treating neuropathic pain | 58 | 58 | dose-related antiallodynic activity | 20 | 63 | 120 | 103.8 ± 22.3 | no significant effect | not sufficient to cause neurological motor dysfunction or sedation | 51 |  |  |  |  |  |  |  |  | 
CCCC(CCC)C(=O)O [VPA, Valproic acid, reference compound] |  |  |  |  |  |  |  |  | no significant effect | not sufficient to cause neurological motor dysfunction or sedation |  | 88 | in a dose dependent manner; also recorded: in a dose-dependent manner | 300 | 60 | 269 | 269 | 269 | 96.8 ± 23.7 | no difference between VPA and placebo in relieving pain
